These results are taken from patent EP0355842A2, “External preparation” (Sansho Seiyaku Co., Ltd., priority 1988, dated 1990).

The series deals with B16 cells. Put plainly: Melanin-production test of B16 cells. The conditions noted are these: evaluated concentration 80 µM; culture for 5 days. It counts as cell-based, mouse. How it is done: Experimental Example: Melanin-production test of B16 cells
B16 cells (4 x 10⁴) derived from mouse melanoma are suspended in Eagle MBM medium containing bovine fetal serum (10 ml) for culture in the presence of 5% CO₂ at 37°C in 25-cm³ Rou bottle. At day 0 and 3, the medium is replaced for a medium containing each of the above substances of 80 µM/l or 60 µM/l to continue the culture for 5 days. The cells washed with phosphate buffer (pH 7.2) containing 0.8 W/V NaCl, were separated using the solution containing trypsin and EDTA, and filtered to recover the cells. The cells recovered on the filter were measured of their reflection luminous intensity (degree of darkness) at 500 nm with a densitometer.
For 2-Monopentadecenoin, the Melanin levels amounted to 0.1 µg/10^6 cells and the Number of cells is 2.2 × 10^4 cells.

As for `CCC=CCCCCCCCC(=O)OCC(CO)OC(=O)CCCCCCCC=CCC` (stereo not drawn) [1,2-Didodecenoin], the Melanin levels amounted to 4.0 µg/10^6 cells and the Number of cells is recorded as 2.4 × 10^4 cells.

Regarding `CCCC/C=C\CCCCCCCC(=O)OCC(CO)OC(=O)CCCCCCC/C=C\CCCC` (stereo not drawn) [1,2-Dimyristolein], the Melanin levels worked out at 2.8 µg/10^6 cells and the Number of cells is reported as 2.5 × 10^4 cells.

As to `CCCCCC/C=C\CCCCCCCC(=O)OCC(CO)OC(=O)CCCCCCC/C=C\CCCCCC` (stereo not drawn) [1,2-Dipalmitolein], the Melanin levels is reported as 0.1 µg/10^6 cells and the Number of cells is 2.2 × 10^4 cells.

For the compound `CCCCC=CCCCCCCCCC(=O)OCC(CO)OC(=O)CCCCCCCCC=CCCCC` (stereo not drawn) [1,2-Dipentadecenoin], the Melanin levels is on record as 0.1 µg/10^6 cells and the Number of cells is listed as 2.5 × 10^4 cells.

For `CCCC/C=C\CCCCCCCC(=O)OCC(O)COC(=O)CCCCCCC/C=C\CCCC` [1,3-Dimyristoelin], the Melanin levels came out at 1.2 µg/10^6 cells and the Number of cells was 2.0 × 10^4 cells.

For `CCCCCC/C=C\CCCCCCCC(=O)OCC(O)COC(=O)CCCCCCC/C=C\CCCCCC` [1,3-Dipalmitolein], the Melanin levels came to 0.1 µg/10^6 cells and the Number of cells is recorded as 2.1 × 10^4 cells.

For the compound `CCCCC=CCCCCCCCCC(=O)OCC(O)COC(=O)CCCCCCCCC=CCCCC` (stereo not drawn) [1,3-Dipentadecenoin], the Melanin levels is recorded as 0.2 µg/10^6 cells and the Number of cells is recorded as 2.1 × 10^4 cells.

For `CCCCCCC=CCCCCCCCCC(=O)OCC(O)COC(=O)CCCCCCCCC=CCCCCCC` (stereo not drawn) [1,3-Heptadecenoin], the Melanin levels was 1.2 µg/10^6 cells and the Number of cells is listed as 2.1 × 10^4 cells.

Consider `CCC=CCCCCCCCC(=O)OCC(O)CO` (stereo not drawn) [1-Monododecenoin], for which the Melanin levels is listed as 4.2 µg/10^6 cells and the Number of cells is 2.7 × 10^4 cells.

On to `CCCCCCC=CCCCCCCCCC(=O)OCC(O)CO` (stereo not drawn) [1-Monoheptadecenoin], for which the Melanin levels worked out at 0.4 µg/10^6 cells and the Number of cells is on record as 2.0 × 10^4 cells.

`CCCC/C=C\CCCCCCCC(=O)OCC(O)CO` (stereo not drawn) [1-Monomyristolein]: the Melanin levels is 2.2 µg/10^6 cells and the Number of cells was 2.5 × 10^4 cells.

As for `CC=CCCCCC(=O)OCC(O)CO` (stereo not drawn) [1-Monooctenoin], the Melanin levels is recorded as 4.5 µg/10^6 cells and the Number of cells was 2.6 × 10^4 cells.

For `CCCCCC/C=C\CCCCCCCC(=O)OCC(O)CO` (stereo not drawn) [1-Monopalmitolein], the Melanin levels came out at 0.1 µg/10^6 cells and the Number of cells is 2.2 × 10^4 cells.

As for `CCCCC=CCCCCCCCCC(=O)OCC(O)CO` (stereo not drawn) [1-Monopentadecenoin], the Melanin levels amounted to 0.1 µg/10^6 cells and the Number of cells is recorded as 2.4 × 10^4 cells.

For `CC=CC(=O)O` [2-Butenoic acid], the Melanin levels is recorded as 4.6 µg/10^6 cells and the Number of cells is reported as 2.7 × 10^4 cells.

With `CCCCCCC=CCCCCCCCCC(=O)OC(CO)CO` [2-Monoheptadecenoin], the Melanin levels turned out to be 0.3 µg/10^6 cells and the Number of cells is 2.2 × 10^4 cells.

For `CCC=CCC(=O)OC(CO)CO` [2-Monohexenoin], the Melanin levels was determined as 4.3 µg/10^6 cells and the Number of cells is on record as 2.4 × 10^4 cells.

As for `CCCCCC/C=C\CCCCCCCC(=O)OC(CO)CO` [2-Monopalmitolein], the Melanin levels is listed as 0.1 µg/10^6 cells and the Number of cells was 2.1 × 10^4 cells.

With `CCCC=CCCCCCC(=O)OC(CO)CO` [2-Monoundecenoin], the Melanin levels is reported as 3.9 µg/10^6 cells and the Number of cells is recorded as 2.5 × 10^4 cells.

In the case of `CCCC=CCC=CCC=CCCCCC(=O)O` [6,9,12-Hexadecatrienoic acid], the Melanin levels came to 0.1 µg/10^6 cells and the Number of cells is on record as 2.5 × 10^4 cells.

Regarding `CCC=CCC=CCCCCC(=O)O` [6,9-Dodecadienoic acid], the Melanin levels amounted to 4.4 µg/10^6 cells and the Number of cells was 2.5 × 10^4 cells.

On to `CCCCCCC=CCC=CCCCCC(=O)O` [6,9-Hexadecadienoic acid], for which the Melanin levels was 0.1 µg/10^6 cells and the Number of cells was 2.4 × 10^4 cells.

Take `CCCCC=CCC=CCCCCC(=O)O` [6,9-Tetradecadienoic acid]: the Melanin levels is reported as 0.3 µg/10^6 cells and the Number of cells is reported as 2.5 × 10^4 cells.

In the case of `CCCC=CCCCCC(=O)O` [6-Decenoic acid], the Melanin levels is 4.8 µg/10^6 cells and the Number of cells is 2.6 × 10^4 cells.

Turning to `CC=CCCCCC(=O)O` [6-Octenoic acid], the Melanin levels is given as 4.7 µg/10^6 cells and the Number of cells is 2.6 × 10^4 cells.

Take `CCCCC=CCC=CCCCCCC(=O)O` [7,10-Pentadecadienoic acid]: the Melanin levels was 0.1 µg/10^6 cells and the Number of cells is listed as 2.6 × 10^4 cells.

In the case of `CCC=CCC=CCCCCCC(=O)O` [7,10-Tridecadienoic acid], the Melanin levels came to 3.2 µg/10^6 cells and the Number of cells was 2.4 × 10^4 cells.

As for `CCCC=CCCCCCC(=O)O` [7-Undecenoic acid], the Melanin levels is 4.7 µg/10^6 cells and the Number of cells is recorded as 2.7 × 10^4 cells.

As for `CCC=CCCCCCCCC(=O)O` [9-Dodecenoic acid], the Melanin levels is given as 4.6 µg/10^6 cells and the Number of cells is recorded as 2.7 × 10^4 cells.

In the case of `CCCCCCC=CCCCCCCCC(=O)O` [9-Hexadecenoic acid], the Melanin levels is on record as 0.1 µg/10^6 cells and the Number of cells is listed as 3.2 × 10^4 cells.

On to `CCCCC=CCCCCCCCC(=O)O` [9-Tetradecenoic acid], for which the Melanin levels was found to be 0.3 µg/10^6 cells and the Number of cells is on record as 2.5 × 10^4 cells.

Take `CCCCCCC=CCCCCCCCCC(=O)OC` [10-Heptadecenoic acid methyl]: the Melanin levels was 2.0 µg/10^6 cells and the Number of cells is 2.5 × 10^4 cells.

As for `CCCCCCC=CCCCCCCCCC(=O)O` [10-Heptadecenoic acid], the Melanin levels is listed as 0.5 µg/10^6 cells and the Number of cells is 2.6 × 10^4 cells.

`CCCCC=CCCCCCCCCC(=O)OC` [10-Pentadecenoic acid methyl]: the Melanin levels worked out at 0.1 µg/10^6 cells and the Number of cells is listed as 2.7 × 10^4 cells.

As to `CCCCC=CCCCCCCCCC(=O)O` [10-Pentadecenoic acid], the Melanin levels was found to be 0.1 µg/10^6 cells and the Number of cells is 2.6 × 10^4 cells.

Turning to `CCC=CCCCCCCCCC(=O)O` [10-Tridecenoic acid], the Melanin levels is 3.0 µg/10^6 cells and the Number of cells was 2.7 × 10^4 cells.

As for `CCCCCC/C=C/CCCCCCCC(=O)OC[C@H](COP(=O)([O-])OCC[N+](C)(C)C)OC(=O)CCCCCCC/C=C/CCCCCC` [L-α-Lecithin dipalmitoelaidoyl], the Melanin levels is given as 3.8 µg/10^6 cells and the Number of cells was 2.7 × 10^4 cells.

Take `CCCCCC/C=C\CCCCCCCC(=O)OC[C@H](COP(=O)([O-])OCC[N+](C)(C)C)OC(=O)CCCCCCC/C=C\CCCCCC` [L-α-Lecithin dipalmitoleyl]: the Melanin levels is given as 3.9 µg/10^6 cells and the Number of cells is 2.8 × 10^4 cells.

For `CCCC/C=C\CCCCCCCC(=O)OC` [Myristoleic acid methyl], the Melanin levels is recorded as 1.2 µg/10^6 cells and the Number of cells is 2.6 × 10^4 cells.

Take `CCCCCC/C=C\CCCCCCCC(=O)OC` [Palmitoleic acid methyl]: the Melanin levels was found to be 0.1 µg/10^6 cells and the Number of cells is on record as 2.6 × 10^4 cells.

For the compound `CCCCCCC=CCCCCCCCCC(=O)OCC(COC(=O)CCCCCCCCC=CCCCCCC)OC(=O)CCCCCCCCC=CCCCCCC` (stereo not drawn) [Triheptadecenoin], the Melanin levels came to 1.0 µg/10^6 cells and the Number of cells was 2.7 × 10^4 cells.

On to `CCCC/C=C\CCCCCCCC(=O)OCC(COC(=O)CCCCCCC/C=C\CCCC)OC(=O)CCCCCCC/C=C\CCCC` [Trimyristolein], for which the Melanin levels was found to be 1.5 µg/10^6 cells and the Number of cells is on record as 2.5 × 10^4 cells.

As for `CCCCCC/C=C\CCCCCCCC(=O)OCC(COC(=O)CCCCCCC/C=C\CCCCCC)OC(=O)CCCCCCC/C=C\CCCCCC` [Tripalmitolein], the Melanin levels came out at 0.1 µg/10^6 cells and the Number of cells is recorded as 2.1 × 10^4 cells.

Consider `CCCCC=CCCCCCCCCC(=O)OCC(COC(=O)CCCCCCCCC=CCCCC)OC(=O)CCCCCCCCC=CCCCC` (stereo not drawn) [Tripentadecenoin], for which the Melanin levels worked out at 0.2 µg/10^6 cells and the Number of cells is given as 2.2 × 10^4 cells.
